Results published in ChEMBL document CHEMBL1135169, “4,4-Disubstituted cyclohexylamine NK(1) receptor antagonists I” (Bioorg Med Chem Lett, 2002).

What follows are molecules tested on Gerbillinae (assay: Inhibitory dose after 2 hours required to produce blockade of foot-tapping activity induced by central infusion of NK1-agonist GR-73632). Conditions: read-out: ID50 (the source's name).
Format: functional

| Compound | ED50 |
| --- | --- |
| CC(C(=O)N[C@]1(c2ccccc2)CC[C@@H](N2CCC(c3ccc(F)cc3)CC2)CC1)c1cc(C(F)(F)F)cc(C(F)(F)F)c1 (mixture of isomers) | 0.6 mg/kg |

These molecules were tested on Gerbillinae (assay: Inhibitory activity when the NK1 agonist challenge was given 2 hr after dosing at 3 mg/kg, iv). Conditions: not given.
Format: functional

| Compound | inhibition in vivo at 3 mg/kg |
| --- | --- |
| O=C(NCc1cc(C(F)(F)F)cc(C(F)(F)F)c1)[C@]1(c2ccccc2)CC[C@H](N2CCC(c3ccc(F)cc3)CC2)CC1 | 15% |

These molecules were tested on Gerbillinae (assay: Inhibitory dose required to produce blockade of foot-tapping activity induced by central infusion of NK1-agonist GR-73632). Conditions: read-out: ID50 (the source's name).
Format: functional

| Compound | ED50 |
| --- | --- |
| O=C(NCc1cc(C(F)(F)F)cc(C(F)(F)F)c1)[C@]1(c2ccccc2)CC[C@H](N2CCC(c3ccc(F)cc3)CC2)CC1 | 1.9 mg/kg |
| CC(C(=O)N[C@]1(c2ccccc2)CC[C@@H](N2CCC(c3ccc(F)cc3)CC2)CC1)c1cc(C(F)(F)F)cc(C(F)(F)F)c1 (mixture of isomers) | 1.7 mg/kg |

Each molecule was assayed against T1, Substance-P receptor (Homo sapiens, UniProt P25103) (assay: Tested for inhibitory concentration expressed as displacement of [125I]-labeled substance P from the cloned human Tachykinin receptor 1 expressed in CHO cells). Conditions: not given.
Format: cell-based

T1 sequence (P25103 whole entry): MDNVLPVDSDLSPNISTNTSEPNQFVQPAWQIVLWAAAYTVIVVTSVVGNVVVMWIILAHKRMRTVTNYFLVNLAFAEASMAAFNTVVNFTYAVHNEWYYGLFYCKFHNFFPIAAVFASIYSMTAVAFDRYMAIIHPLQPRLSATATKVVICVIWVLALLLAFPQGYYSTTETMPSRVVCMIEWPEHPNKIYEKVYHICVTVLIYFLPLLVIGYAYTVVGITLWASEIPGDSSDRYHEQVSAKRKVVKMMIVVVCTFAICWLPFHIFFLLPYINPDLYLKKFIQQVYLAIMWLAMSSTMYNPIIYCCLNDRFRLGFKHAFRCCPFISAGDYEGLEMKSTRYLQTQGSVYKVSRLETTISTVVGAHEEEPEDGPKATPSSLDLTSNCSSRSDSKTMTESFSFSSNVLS

| Compound | IC50 |
| --- | --- |
| FC(F)(F)c1cc(CO[C@H]2C3CCN(CC3)[C@H]2c2ccccc2)cc(C(F)(F)F)c1 | 0.2 nM |

What follows are molecules tested against T1, Substance-P receptor (assay: Displacement of [125I]-labeled substance P from the cloned Tachykinin receptor 1). Conditions: not given.

| Compound | IC50 |
| --- | --- |
| Fc1ccc(C2CCN([C@H]3CC[C@](COCc4cc(C(F)(F)F)cc(C(F)(F)F)c4)(c4ccccc4)CC3)CC2)cc1 | 4.2 nM |
| CC(OC[C@]1(c2ccccc2)CC[C@@H](N2CCC(c3ccc(F)cc3)CC2)CC1)c1cc(C(F)(F)F)cc(C(F)(F)F)c1 (mixture of isomers) | 5.3 nM |
| Fc1ccc(C2CCN([C@H]3CC[C@](CNCc4cc(C(F)(F)F)cc(C(F)(F)F)c4)(c4ccccc4)CC3)CC2)cc1 | 1.7 nM |
| CC(NC(=O)[C@]1(c2ccccc2)CC[C@@H](N2CCC(c3ccc(F)cc3)CC2)CC1)c1cc(C(F)(F)F)cc(C(F)(F)F)c1 (mixture of isomers) | 0.77 nM |
| Fc1ccc(C2CCN([C@H]3CC[C@@](COCc4cc(C(F)(F)F)cc(C(F)(F)F)c4)(c4ccccc4)CC3)CC2)cc1 | 59 nM |
| Fc1ccc(C2CCN(C3CCC(CCCc4cc(C(F)(F)F)cc(C(F)(F)F)c4)(c4ccccc4)CC3)CC2)cc1 (mixture of isomers) | 40 nM |
| O=C(OCc1cc(C(F)(F)F)cc(C(F)(F)F)c1)[C@]1(c2ccccc2)CC[C@@H](N2CCC(c3ccc(F)cc3)CC2)CC1 | 140 nM |
| O=C(OC[C@]1(c2ccccc2)CC[C@H](N2CCC(c3ccc(F)cc3)CC2)CC1)c1cc(C(F)(F)F)cc(C(F)(F)F)c1 | 120 nM |
| O=C(NCc1cc(C(F)(F)F)cc(C(F)(F)F)c1)[C@]1(c2ccccc2)CC[C@@H](N2CCC(c3ccc(F)cc3)CC2)CC1 | 150 nM |
| O=C(NCc1cc(C(F)(F)F)cc(C(F)(F)F)c1)C1(c2ccccc2)CCNCC1 | 130 nM |
| O=C(NC[C@]1(c2ccccc2)CC[C@H](N2CCC(c3ccc(F)cc3)CC2)CC1)c1cc(C(F)(F)F)cc(C(F)(F)F)c1 | 6.3 nM |
| Fc1ccc(C2CCN([C@H]3CC[C@@](CNCc4cc(C(F)(F)F)cc(C(F)(F)F)c4)(c4ccccc4)CC3)CC2)cc1 | 82 nM |
| O=C(NC[C@]1(c2ccccc2)CC[C@@H](N2CCC(c3ccc(F)cc3)CC2)CC1)c1cc(C(F)(F)F)cc(C(F)(F)F)c1 | 250 nM |
| O=C(OCc1cc(C(F)(F)F)cc(C(F)(F)F)c1)[C@]1(c2ccccc2)CC[C@H](N2CCC(c3ccc(F)cc3)CC2)CC1 | 2.5 nM |
| O=C(Cc1cc(C(F)(F)F)cc(C(F)(F)F)c1)N[C@]1(c2ccccc2)CC[C@@H](N2CCC(c3ccc(F)cc3)CC2)CC1 | 85 nM |
| CC(NC(=O)[C@]1(c2ccccc2)CC[C@@H](N2CCC(c3ccc(F)cc3)CC2)CC1)c1cc(C(F)(F)F)cc(C(F)(F)F)c1 (single isomer, unassigned; (-)) | 1.5 nM |

Other lines, results leading:

| IC50 | Compound |
| --- | --- |
| 0.29 nM | O=C(NC(CO)c1cc(C(F)(F)F)cc(C(F)(F)F)c1)[C@]1(c2ccccc2)CC[C@@H](N2CCC(c3ccc(F)cc3)CC2)CC1 (mixture of isomers) |
| 0.62 nM | CC(C)(NC(=O)[C@]1(c2ccccc2)CC[C@@H](N2CCC(c3ccc(F)cc3)CC2)CC1)c1cc(C(F)(F)F)cc(C(F)(F)F)c1 |
| 0.34 nM | O=C(NCc1cc(C(F)(F)F)cc(C(F)(F)F)c1)[C@]1(c2ccccc2)CC[C@H](N2CCC(c3ccc(F)cc3)CC2)CC1 |
| 0.44 nM | O=C(N[C@]1(c2ccccc2)CC[C@@H](N2CCC(c3ccc(F)cc3)CC2)CC1)C(CO)c1cc(C(F)(F)F)cc(C(F)(F)F)c1 (mixture of isomers) |
| 0.75 nM | OCC(OC[C@]1(c2ccccc2)CC[C@@H](N2CCC(c3ccc(F)cc3)CC2)CC1)c1cc(C(F)(F)F)cc(C(F)(F)F)c1 (mixture of isomers) |
| 0.49 nM | CC(C)(C(=O)N[C@]1(c2ccccc2)CC[C@@H](N2CCC(c3ccc(F)cc3)CC2)CC1)c1cc(C(F)(F)F)cc(C(F)(F)F)c1 |
| 0.7 nM | O=C(Cc1cc(C(F)(F)F)cc(C(F)(F)F)c1)N[C@]1(c2ccccc2)CC[C@H](N2CCC(c3ccc(F)cc3)CC2)CC1 |
| 0.63 nM | CC(C(=O)N[C@]1(c2ccccc2)CC[C@@H](N2CCC(c3ccc(F)cc3)CC2)CC1)c1cc(C(F)(F)F)cc(C(F)(F)F)c1 (mixture of isomers) |
| 0.35 nM | CC(NC(=O)[C@]1(c2ccccc2)CC[C@@H](N2CCC(c3ccc(F)cc3)CC2)CC1)c1cc(C(F)(F)F)cc(C(F)(F)F)c1 (stereo in doubt; (+)-29a) |

What follows are molecules tested against T1, Substance-P receptor (assay: Tested for inhibitory concentration expressed as displacement of [125I]-labeled substance P from the cloned Tachykinin receptor 1 expressed in CHO cells at dosage of 1000 nM). Conditions: not given.
Format: cell-based

| inhibition | Compound |
| --- | --- |
| 50% | O=C(OC[C@]1(c2ccccc2)CC[C@@H](N2CCC(c3ccc(F)cc3)CC2)CC1)c1cc(C(F)(F)F)cc(C(F)(F)F)c1 |

What follows are molecules tested on Gerbillinae (assay: Inhibitory dose after 24 hours required to produce blockade of foot-tapping activity induced by central infusion of NK1-agonist GR-73632). Conditions: read-out: ID50 (the source's name).
Format: functional

| Compound | ED50 |
| --- | --- |
| CC(C(=O)N[C@]1(c2ccccc2)CC[C@@H](N2CCC(c3ccc(F)cc3)CC2)CC1)c1cc(C(F)(F)F)cc(C(F)(F)F)c1 (mixture of isomers) | 1.8 mg/kg |
